The record followed here is patent EP2292624A1, “Process for the purification of olanzapine” (LEK Pharmaceuticals d.d., priority 2009, dated 2011).

For the data set the following is noted: water; printed as 'approximately up to about'.

Counter-ions that a name gives are not always drawn.

With `Cc1cc2c(s1)Nc1ccccc1N=C2N1CCN(C)CC1` [oxalic acid addition salt of olanzapine], the aqueous solubility result is reported as “up to 800 mg/mL”.
